# Assay results taken from US20140275257A1, “N-ACETYL CYSTEINE COMPOSITIONS IN THE TREATMENT OF SYSTEMIC LUPUS ERYTHEMATOSUS” (Foundation for the State University of New York, priority 2013, published 2014).
# Tests used:
# [1] = system: GSH in peripheral blood lymphocytes (PBL); assay: HPLC assay of GSH in peripheral blood lymphocytes (PBL) of SLE patients; assay type: in vivo, human
# Description: Reduced glutathione (GSH) was measured by reverse phase ion-exchange HPLC using UV detection at 365 nm, as described in Gergely, P. J. et al., “Mitochondrial hyperpolarization and ATP depletion in patients with systemic lupus erythematosus,” Arth. Rheum., 46: 175-190 (2002); and Hanczko, R. et al., “Prevention of hepatocarcinogenesis and acetaminophen-induced liver failure in transaldolase-deficient mice by N-acetylcysteine,” J. Clin. Invest., 119: 1546-1557 (2009). The disclosures of each of these references are incorporated by reference herein in their entirety.
# GSH was measured in whole blood and peripheral blood lymphocytes (PBL) before (visit 1; 0 h) and after the first NAC/placebo dose (visit 1; 3 h and 6 h) and upon each monthly follow-up visit (visits 2-4: between 9-11 am after having taken the last NAC/placebo capsule 8 pm the night before), and after 1 month wash-out (visit 5). HPLC analysis required ˜0.25 ml of whole blood and 5×10^6 PBL which were obtained from a total of 10 ml of blood collected at each time point.
# [2] = system: DN T cells; assay: Spontaneous and CD3/CD28-induced apoptosis of T cells (annexin V/PrI flow cytometry); assay type: in vivo, human; details: NAC-treated patients; for CD3/CD28-induced apoptosis: baseline 16.0±1.6%
# Excerpt: Cell viability was monitored with annexin V conjugated to fluorescein isothiocyanate (annexin V-FITC conjugate), annexin V conjugated to phycoerythrin (annexin V-PE conjugate), or annexin V conjugated to fluorochrome Cy5 (Annexin V-Cy5 conjugate) matched with emission spectra of propidium iodide (PrI) to detect Annexin V+/PrI− apoptotic cells. Mitochondrial transmembrane potential (ΔΨm) was monitored with mitochondrial potentiometric dyes such as 3,3′-dihexyloxacarbocyanine iodide ((DiOC6), using an excitation wavelength of […] and emission at 488 nm, recorded at 525 nm in the FL-1 (green fluorescence) channel); and tetramethylrhodamine, methyl ester ((TMRM), using an excitation wavelength of […], and emission at 543 nm, recorded at 567 nm in the FL-2 (yellow/orange fluorescence) channel), potential-insensitive mitochondrial dyes such as MitoTracker Green-FM (MTG, 100 nM; excitation: 490 nm, emission: 516 nm recorded in FL-1) or nonyl acridine orange (NAO, 50 nM; excitation: 490 nm, emission: 540 nm recorded in FL-1), superoxide sensing hydroethidine (HE, 1 μM) and H2O2-sensing dichlorofluorescein diacetate (DCF-DA, 1 μM), nitric oxide sensor 4-amino-5-methylamino-2′,7′-difluoroflourescein diacetate (DAF-FM, 1 μM, excitation: 495, emission: 515 nm recorded in FL-1), or cytosolic probes (Fluo-3, 1 μM, excitation: 506 nm, emission: 526 nm recorded in FL-1) and mitochondrial Ca^2+-sensitive fluorescent probes (Rhod-2, 1 μM), respectively.
# NO production (FIG. 3D: DAF-FM fluorescence), and mitochondrial mass were measured in T cell subsets following CD3/CD28 stimulation for 16 h (FIG. 3E: NAO fluorescence). FIG. 3F: Spontaneous apoptosis rate was enumerated by the percentage of Ann V+/PrI− T cells after culture for 16 h. FIG. 3G: Activation-induced apoptosis was assessed following CD3/CD28 co-stimulation for 16 h. Visits: visit 1, before 1st NAC dose; visit 2, after 1-month treatment; visit 3, after 2-month treatment; visit 4, after 3-month treatment; visit 5, after 1-month washout.
# Unstimulated cells and cells stimulated with CD3/CD28 for 16 h were examined and cell death pathway selection in T cells was measured by concurrent staining with annexin V-Alexa 647 and propidium iodide (PrI) as well as cell type-specific antigens. T-cell subsets were analyzed by staining with antibodies to CD4, CD8, and CD25. B cells were identified by CD 19 staining
# [3] = system: mTOR; assay: CD3/CD28 stimulation-induced mTOR activity in normal PBL pretreated with NAC in vitro; assay type: cell-based, human; details: pretreatment by NAC in vitro (data not shown)
# Excerpt: Δψm is subject to regulation by an oxidation-reduction equilibrium of ROI, pyridine nucleotides (NADH/NAD+NADPH/NADP) and GSH. (Fernandez, D. and Perl, A. “Metabolic control of T cell activation and death in SLE,” Autoimmun. Rev., 8: 184-189 (2009)). Without being bound by theory, it is believed that NAC can modulate mitochondrial hyperpolarization (MHP), directly, via neutralizing ROI or, indirectly, via sparing NADPH and promoting de novo GSH production. […] NAC-induced MHP occurred with a marked increase in NO production, which is required for mitochondrial biogenesis. (Nagy, G. et al., “Nitric Oxide-Dependent Mitochondrial Biogenesis Generates Ca^2+ Signaling Profile of Lupus T Cells,” J. Immunol., 173: 3676-3683 (2004)). In turn, NO production depends on the availability of NADPH. Without being bound by theory, it is believed that increased NO production can result from sparing of NADPH by NAC. (Fernandez, D. and Perl, A. “Metabolic control of T cell activation and death in SLE,” Autoimmun. Rev., 8: 184-189 (2009)). Without being bound by theory, NAC acts by blocking mTOR, which is a sensor of Δψm and oxidative stress in lupus T cells. (Fernandez, D. R. et al., “Activation of mTOR controls the loss of TCRζ □ in lupus T cells through HRES-1/Rab4-regulated lysosomal degradation,” J. Immunol., 182: 2063-2073 (2009)). […]
# [4] = Noszal et al. (2000); cited from earlier work
smiles,measurement,setting,value
"CC(=O)N[C@@H](CS)C(=O)O [NAC, N-acetyl-L-cysteine]",GSH in PBL,[1]; after 3-month treatment with NAC doses 2 and 3 considered together (visit 4; p=0.027),increased
same,GSH in PBL,"[1]; after one month washout, NAC dose 3 or doses 2 and 3 combined",dropped below baseline
same,GSH in PBL,"[1]; single NAC dose of 1.2 g, after 6 h (p=0.022)",increased
same,GSH in PBL,"[1]; single NAC dose of 2.4 g, after 3 h (p=0.032) and 6 h (p=0.003)",increased
same,CD3/CD28-induced apoptosis,"[2]; after 2 months, p=0.0006",25.4±2.6%
same,CD3/CD28-induced apoptosis,"[2]; after 3 months, p=0.0004",23.5±2.1%
same,Spontaneous apoptosis rate of DN T cells,"[2]; after 4 months, baseline 10.1±1.3%, p=0.035",15.2±2.3%
same,CD3/CD28-induced apoptosis,"[2]; after 4 months, p=0.0313",22.7±2.6%
same,CD3/CD28 stimulation-induced mTOR activity,[3],blocking
same,"half-cell potential, NAC thiol/disulfide pair",[4],about +63 mV
